Results: PMC3222737 (Biochemistry, 2011)
Where “and” joins values, the source holds several entries; their conditions need not be identical. Equal entries are not always repeated. Where two headings read alike, the source gives them in different places.

Key:
MTAP [1] = target: T1, MTAP (Homo sapiens, UniProt Q13126); assay: Isothermal titration calorimetry of ligand binding to human MTAP; conditions: for ΔG: calculated from Ki; for −TΔS: from ΔG=ΔH−TΔS
T1 sequence (Q13126 1-283): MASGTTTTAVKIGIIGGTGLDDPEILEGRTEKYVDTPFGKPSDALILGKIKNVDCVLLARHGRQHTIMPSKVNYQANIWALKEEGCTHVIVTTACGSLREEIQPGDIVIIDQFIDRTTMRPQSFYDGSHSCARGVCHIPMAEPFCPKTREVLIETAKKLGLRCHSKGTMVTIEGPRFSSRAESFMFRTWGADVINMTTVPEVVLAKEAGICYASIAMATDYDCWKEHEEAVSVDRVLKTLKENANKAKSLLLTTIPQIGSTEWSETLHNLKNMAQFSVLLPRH

MTAP [2] = target: T1, MTAP; conditions: cited from earlier work; for Ki: human MTAP
FaDu = FaDu cells; cited from earlier work
Cal27 = Cal27 cells; cited from earlier work
FaDu tumors = conditions: mouse model; cited from earlier work
[3] = test system: human lung cancer cell lines; conditions: mouse xenografts; cited from earlier work
[4] = in vivo; cited from earlier work
MTAP [5] = target: T1, MTAP; assay: Analytical ultracentrifugation sedimentation velocity of MTAP complexes; conditions: for S(20,w) (normalized): MTAP 134 μM + inhibitor 400 μM, normalized for mass of bound ligands; for S(20,w) relative change: versus apo MTAP
[6] = second generation inhibitors, identical sites
[7] = second generation inhibitors, single set of identical sites
[8] = first generation inhibitors, major binding sites
[9] = first generation inhibitors, third site
[10] = first generation inhibitors, major binding sites (first two sites)

SMILES | ΔH (MTAP [1]; [6]) | ΔG (MTAP [1]; [6]) | −TΔS (MTAP [1]; [6]) | n (number of sites) (MTAP [1]; [7]) | Kd (MTAP [2]; [7]) | S(20,w) (normalized) (MTAP [5]) | S(20,w) relative change (MTAP [5]) | n (number of sites) (MTAP [1]; [8]) | ΔH (MTAP [1]; [8]) | ΔG (MTAP [1]; [8]) | −TΔS (MTAP [1]; [8]) | n (number of sites) (MTAP [1]; [9]) | ΔH (MTAP [1]; [9]) | ΔG (MTAP [1]; [9]) | −TΔS (MTAP [1]; [9]) | Kd (MTAP [2]; [10]) | further results
Nc1ncnc2[nH]cnc12 [Adenine, reference compound] | – | – | – | – | – | – | – | – | – | – | – | – | – | – | – | – | Kd (MTAP [1]; Kd, adenine, 1st site, three sequential binding sites model, derived from ITC data fitting): 3000 ± 1000 nM; ΔH (MTAP [1]; adenine, 1st site): -0.013 ± 0.84 kJ/mol; n (number of sites) (MTAP [1]; adenine, 1st site, sequential model): 1; ΔG (MTAP [1]; adenine, 1st site): -31.8 ± 0.84 kJ/mol; −TΔS (MTAP [1]; adenine, 1st site): -31.8 ± 1.3 kJ/mol; ΔH (MTAP [1]; adenine, 2nd site): 10 ± 0.84 kJ/mol; n (number of sites) (MTAP [1]; adenine, 2nd site, sequential model): 1; ΔG (MTAP [1]; adenine, 2nd site): -32.2 ± 0.84 kJ/mol; −TΔS (MTAP [1]; adenine, 2nd site): -42.3 ± 1.3 kJ/mol; ΔH (MTAP [1]; adenine, 3rd site): -10.9 ± 3.3 kJ/mol; n (number of sites) (MTAP [1]; adenine, 3rd site, sequential model): 1; ΔG (MTAP [1]; adenine, 3rd site): -23.4 ± 2.1 kJ/mol; −TΔS (MTAP [1]; adenine, 3rd site): -12.6 ± 3.8 kJ/mol; Entropy (−TΔS) share of the binding energy (MTAP [1]; adenine, third site): 54%
CSC[C@H]1CN(Cc2c[nH]c3c(N)ncnc23)C[C@@H]1O [MT-DADMe-ImmA] | 6.28 ± 0.42 kJ/mol | -57.3 kJ/mol and -57.3 ± 0.42 kJ/mol | -63.6 kJ/mol and -63.6 ± 0.42 kJ/mol | 3 | 0.09 ± 0.01 nM | 5.904 ± 0.016 | 0.79 ± 0.05% | – | – | – | – | – | – | – | – | – | Ki (MTAP [2]; read-out: Ki (dissociation constant by inhibition kinetics)): 0.09 nM; apoptosis (FaDu): induces apoptosis; apoptosis (Cal27): induces apoptosis; tumor growth (FaDu tumors): prevents the growth of FaDu tumors; tumor growth and metastases [3]: inhibits the tumor growth and metastases; systemic toxicity [4]: low systemic toxicity
CSCC1NC(c2c[nH]c3c(N)ncnc23)[C@@H](O)[C@H]1O (some centres unmarked) [MT-ImmA] | – | – | – | – | – | – | – | 2.42 ± 0.04 | 0.84 kJ/mol and 1 ± 0.17 kJ/mol | -51.5 kJ/mol and -51.5 ± 0.42 kJ/mol | -52.3 kJ/mol and -52.3 ± 0.42 kJ/mol | 0.58 ± 0.09 | 11.3 ± 1.7 kJ/mol | -35.1 ± 1.3 kJ/mol | -46.4 ± 2.1 kJ/mol | 1 ± 0.1 nM | Ki (MTAP [2]): 1 nM
CCCSC[C@H]1N[C@@H](c2c[nH]c3c(N)ncnc23)[C@H](O)[C@@H]1O [nPrT-ImmA] | – | – | – | – | – | – | – | 2.13 ± 0.04 | 0.84 kJ/mol and 1 ± 0.13 kJ/mol | -55.2 kJ/mol and -55.2 ± 0.13 kJ/mol | -56.1 kJ/mol and -56.1 ± 0.42 kJ/mol | 0.9 ± 0.1 | 4.6 ± 0.84 kJ/mol | -34.3 ± 1.7 kJ/mol | -38.9 ± 1.7 kJ/mol | 0.214 ± 0.01 nM | –
Nc1ncnc2c(CN3CC(CSc4ccc(Cl)cc4)[C@H](O)C3)c[nH]c12 (some centres unmarked) [p-Cl-PhT-DADMe-ImmA] | 10.9 ± 0.42 kJ/mol | -62.8 kJ/mol and -62.8 ± 1.3 kJ/mol | -73.6 kJ/mol and -73.6 ± 1.3 kJ/mol | 3 | 0.01 ± 0.005 nM | 6.012 ± 0.067 | 2.63% and 2.63 ± 0.12% | – | – | – | – | – | – | – | – | – | –
